Measured values from PMC6001238, “Iterative Chemical Engineering of Vancomycin Leads to Novel Vancomycin Analogs With a High in Vitro Therapeutic Index” (Frontiers in Microbiology, 2018).
≈ marks a conversion by molar mass, not a printed value.

Legend:
MRSA KS1 = test: MIC, broth microdilution, MRSA KS1; type: cell-based, Staphylococcus aureus; details: for MIC-fold improvement vs. vancomycin: MRSA KS1, ratio of MIC of vancomycin and MIC of analogue; for MIC: Staphylococcus aureus MRSA KS1, read-out: MIC
Method in brief: (§1)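 MIC values come from broth microdilution run to CLSI susceptibility-testing standards. Ultrapure water and uninoculated broth served as controls. In one series, vancomycin at a final 10 μM was co-dosed with the analogue or comparator antibiotic.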

E. faecalis VRE 53 = test: MIC, broth microdilution, vancomycin-resistant E. faecalis VRE 53 (VanA); type: cell-based, Enterococcus faecalis; details: for MIC: Enterococcus faecalis VRE 53 (vancomycin-resistant), read-out: MIC; for MIC-fold improvement vs. vancomycin: VRE 53, ratio of MIC of vancomycin and MIC of analogue
Method in brief: as §1

[1] = system: Murine leukemia (L1210) cells; test: Cytostatic activity, L1210 cell proliferation; type: cell-based; details: mean ± SD of three experiments; highest concentration tested 250 µM; 2 days; read-out: Toxicity (IC50) L1210
Method in brief: (§2)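 Test compounds, serially diluted, received an equal volume of cell suspension at 300,000–500,000 cells/mL. After 37°C incubation (2 days for L1210, 3 for CEM, 4 for HeLa), cells were enumerated by Coulter counting and 50%-inhibitory concentrations calculated per cell type.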

[2] = system: L1210, CEM and HeLa cell lines; test: Cytostatic activity, average or summary over L1210, CEM and HeLa; type: cell-based; details: average of L1210, CEM and HeLa; read-out: Toxicity (IC50) Average
Method in brief: as §2

[3] = system: human cervix carcinoma (HeLa) cells; test: Cytostatic activity, HeLa cell proliferation; type: cell-based; details: mean ± SD of three experiments; highest concentration tested 250 µM; 4 days; read-out: Toxicity (IC50) HeLa
Method in brief: as §2

MRSA KS6 = test: MIC, broth microdilution, MRSA KS6; type: cell-based, Staphylococcus aureus; details: for MIC-fold improvement vs. vancomycin: MRSA KS6, ratio of MIC of vancomycin and MIC of analogue; for MIC: Staphylococcus aureus MRSA KS6, read-out: MIC
Method in brief: as §1

S. aureus VISA/HIP5827 = test: MIC, broth microdilution, vancomycin-intermediate S. aureus VISA HIP5827; type: cell-based, Staphylococcus aureus; details: for MIC: Staphylococcus aureus VISA/HIP5827, read-out: MIC; for MIC-fold improvement vs. vancomycin: VISA/HIP5827, ratio of MIC of vancomycin and MIC of analogue
Method in brief: as §1

[4] = system: human T-lymphocyte (CEM) cells; test: Cytostatic activity, CEM cell proliferation; type: cell-based; details: mean ± SD of three experiments; highest concentration tested 250 µM; 3 days; read-out: Toxicity (IC50) CEM
Method in brief: as §2

E. faecalis VRE 6 = test: MIC, broth microdilution, vancomycin-resistant E. faecalis VRE 6 (VanA); type: cell-based, Enterococcus faecalis; details: for MIC: Enterococcus faecalis VRE 6 (vancomycin-resistant), read-out: MIC; for MIC-fold improvement vs. vancomycin: VRE 6, ratio of MIC of vancomycin and MIC of analogue
Method in brief: as §1

MRSA KS89 = test: MIC, broth microdilution, MRSA KS89; type: cell-based, Staphylococcus aureus; details: for MIC-fold improvement vs. vancomycin: MRSA KS8, ratio of MIC of vancomycin and MIC of analogue; for MIC: Staphylococcus aureus MRSA KS8, read-out: MIC
Method in brief: as §1

MRSA KS2 = test: MIC, broth microdilution, MRSA KS2; type: cell-based, Staphylococcus aureus; details: for MIC-fold improvement vs. vancomycin: MRSA KS2, ratio of MIC of vancomycin and MIC of analogue; for MIC: Staphylococcus aureus MRSA KS2, read-out: MIC
Method in brief: as §1

E. faecalis VRE 37 = test: MIC, broth microdilution, vancomycin-resistant E. faecalis VRE 37 (VanA); type: cell-based, Enterococcus faecalis; details: for MIC: Enterococcus faecalis VRE 37 (vancomycin-resistant), read-out: MIC; for MIC-fold improvement vs. vancomycin: VRE 37, ratio of MIC of vancomycin and MIC of analogue
Method in brief: as §1

S. aureus VRSA = test: MIC, broth microdilution, vancomycin-resistant S. aureus (VRSA); type: cell-based, Staphylococcus aureus; details: for MIC: Staphylococcus aureus VRSA, read-out: MIC; for MIC-fold improvement vs. vancomycin: VRSA, ratio of MIC of vancomycin and MIC of analogue
Method in brief: as §1

[5] = system: S. aureus VSSA (ATCC 6538); test: MIC, broth microdilution, vancomycin-sensitive S. aureus (VSSA/MSSA, ATCC 6538); type: cell-based, Staphylococcus aureus; details: for MIC: Staphylococcus aureus VSSA, read-out: MIC; for MIC-fold improvement vs. vancomycin: VSSA, ratio of MIC of vancomycin and MIC of analogue
Method in brief: as §1

E. faecalis VSE 1 = test: MIC, broth microdilution, vancomycin-sensitive E. faecalis (VSE 1); type: cell-based, Enterococcus faecalis; details: for MIC: Enterococcus faecalis VSE 1 (vancomycin-sensitive), read-out: MIC; for MIC-fold improvement vs. vancomycin: VSE 1, ratio of MIC of vancomycin and MIC of analogue
Method in brief: as §1

E. faecalis VRE 29 = test: MIC, broth microdilution, vancomycin-resistant E. faecalis VRE 29 (VanA); type: cell-based, Enterococcus faecalis; details: for MIC: Enterococcus faecalis VRE 29 (vancomycin-resistant), read-out: MIC; for MIC-fold improvement vs. vancomycin: VRE 29, ratio of MIC of vancomycin and MIC of analogue
Method in brief: as §1

SMILES	MIC-fold improvement vs. vancomycin (MRSA KS1)	MIC (MRSA KS1)	MIC (E. faecalis VRE 53)	MIC-fold improvement vs. vancomycin (E. faecalis VRE 53)	IC50 [1]	IC50 [2]	IC50 [3]	MIC-fold improvement vs. vancomycin (MRSA KS6)	MIC (MRSA KS6)	MIC (S. aureus VISA/HIP5827)	MIC-fold improvement vs. vancomycin (S. aureus VISA/HIP5827)	IC50 [4]	MIC (E. faecalis VRE 6)	MIC-fold improvement vs. vancomycin (E. faecalis VRE 6)	MIC-fold improvement vs. vancomycin (MRSA KS89)	MIC (MRSA KS89)	MIC-fold improvement vs. vancomycin (MRSA KS2)	MIC (MRSA KS2)	MIC (E. faecalis VRE 37)	MIC-fold improvement vs. vancomycin (E. faecalis VRE 37)	further results
CN[C@H](CC(C)C)C(=O)N[C@H]1C(=O)N[C@@H](CC(N)=O)C(=O)N[C@H]2C(=O)N[C@H]3C(=O)N[C@H](C(=O)N[C@H](C(=O)NCC(=O)Nc4cc(OC)cc(OC)c4)c4cc(O)cc(O)c4-c4cc3ccc4O)[C@H](O)c3ccc(c(Cl)c3)Oc3cc2cc(c3O[C@@H]2O[C@H](CO)[C@@H](O)[C@H](O)[C@H]2O[C@H]2C[C@](C)(N)[C@H](O)[C@H](C)O2)Oc2ccc(cc2Cl)[C@H]1O [Vanc-17]	1	0.78 µM (≈ 1.28 µg/mL)	25 µM (≈ 41 µg/mL)	16	> 250 µM	206 µM	119 ± 48 µM	1	0.78 µM (≈ 1.28 µg/mL)	0.78 µM (≈ 1.28 µg/mL)	8	> 250 µM	6.25 µM (≈ 10.3 µg/mL)	32	1	0.78 µM (≈ 1.28 µg/mL)	2	0.39 µM (≈ 0.64 µg/mL)	50 µM (≈ 82.1 µg/mL)	8	MIC (S. aureus VRSA): 12.5 µM (≈ 20.5 µg/mL); MIC-fold improvement vs. vancomycin (S. aureus VRSA): 8; MIC [5]: 0.78 µM (≈ 1.28 µg/mL); MIC-fold improvement vs. vancomycin [5]: 1; MIC (E. faecalis VSE 1): 0.78 µM (≈ 1.28 µg/mL); MIC-fold improvement vs. vancomycin (E. faecalis VSE 1): 2; MIC (E. faecalis VRE 29): 25 µM (≈ 41 µg/mL); MIC-fold improvement vs. vancomycin (E. faecalis VRE 29): 16
CCCCC#Cc1ccc(NC(=O)CNC(=O)[C@H]2NC(=O)[C@H]3NC(=O)[C@H](NC(=O)[C@@H]4NC(=O)[C@H](CC(N)=O)NC(=O)[C@H](NC(=O)[C@@H](CC(C)C)NC)[C@H](O)c5ccc(c(Cl)c5)Oc5cc4cc(c5O[C@@H]4O[C@H](CO)[C@@H](O)[C@H](O)[C@H]4O[C@H]4C[C@](C)(N)[C@H](O)[C@H](C)O4)Oc4ccc(cc4Cl)[C@H]3O)c3ccc(O)c(c3)-c3c(O)cc(O)cc32)cc1 [Vanc-37]	4	0.20 µM (≈ 0.332 µg/mL)	3.13 µM (≈ 5.2 µg/mL)	128	14 ± 7 µM	52 µM	118 ± 10 µM	8	0.10 µM (≈ 0.166 µg/mL)	0.10 µM (≈ 0.166 µg/mL)	64	24 ± 4 µM	1.56 µM (≈ 2.59 µg/mL)	128	4	0.20 µM (≈ 0.332 µg/mL)	4	0.20 µM (≈ 0.332 µg/mL)	1.56 µM (≈ 2.59 µg/mL)	256	MIC (S. aureus VRSA): 1.56 µM (≈ 2.59 µg/mL); MIC-fold improvement vs. vancomycin (S. aureus VRSA): 64; MIC [5]: 0.10 µM (≈ 0.166 µg/mL); MIC-fold improvement vs. vancomycin [5]: 8; MIC (E. faecalis VSE 1): 0.20 µM (≈ 0.332 µg/mL); MIC-fold improvement vs. vancomycin (E. faecalis VSE 1): 8; MIC (E. faecalis VRE 29): 6.25 µM (≈ 10.4 µg/mL); MIC-fold improvement vs. vancomycin (E. faecalis VRE 29): 64
CNC(CC(C)C)C(=O)NC1C(=O)NC(CC(N)=O)C(=O)NC2C(=O)NC3C(=O)NC(C(=O)NC(C(=O)NCC(=O)Nc4ccc(-c5cn(-c6ccc(C)cc6)nn5)cc4)c4cc(O)cc(O)c4-c4cc3ccc4O)C(O)c3ccc(c(Cl)c3)Oc3cc2cc(c3OC2OC(CO)C(O)C(O)C2OC2CC(C)(N)C(O)C(C)O2)Oc2ccc(cc2Cl)C1O (stereo not shown) [Vanc-76]	>8	<0.10 µM	3.13 µM (≈ 5.44 µg/mL)	128	11 ± 7 µM	10 µM	17 ± 2 µM	4	0.20 µM (≈ 0.348 µg/mL)	0.78 µM (≈ 1.36 µg/mL)	8	3.2 ± 0.6 µM	1.56 µM (≈ 2.71 µg/mL)	128	4	0.20 µM (≈ 0.348 µg/mL)	4	0.20 µM (≈ 0.348 µg/mL)	3.13 µM (≈ 5.44 µg/mL)	128	MIC (S. aureus VRSA): 0.78 µM (≈ 1.36 µg/mL); MIC-fold improvement vs. vancomycin (S. aureus VRSA): 128; MIC [5]: 0.39 µM (≈ 0.678 µg/mL); MIC-fold improvement vs. vancomycin [5]: 2; MIC (E. faecalis VSE 1): 0.78 µM (≈ 1.36 µg/mL); MIC-fold improvement vs. vancomycin (E. faecalis VSE 1): 2; MIC (E. faecalis VRE 29): 3.13 µM (≈ 5.44 µg/mL); MIC-fold improvement vs. vancomycin (E. faecalis VRE 29): 128
CN[C@H](CC(C)C)C(=O)N[C@H]1C(=O)N[C@@H](CC(N)=O)C(=O)N[C@H]2C(=O)N[C@H]3C(=O)N[C@H](C(=O)N[C@H](C(=O)NCCNC(=O)/C=C/c4cccc(OC)c4)c4cc(O)cc(O)c4-c4cc3ccc4O)[C@H](O)c3ccc(c(Cl)c3)Oc3cc2cc(c3O[C@@H]2O[C@H](CO)[C@@H](O)[C@H](O)[C@H]2O[C@H]2C[C@](C)(N)[C@H](O)[C@H](C)O2)Oc2ccc(cc2Cl)[C@H]1O [Vanc-23]	1	0.78 µM (≈ 1.29 µg/mL)	25 µM (≈ 41.3 µg/mL)	16	> 250 µM	> 250 µM	> 250 µM	1	0.78 µM (≈ 1.29 µg/mL)	0.78 µM (≈ 1.29 µg/mL)	8	> 250 µM	3.13 µM (≈ 5.17 µg/mL)	64	1	0.78 µM (≈ 1.29 µg/mL)	2	0.39 µM (≈ 0.644 µg/mL)	25 µM (≈ 41.3 µg/mL)	16	MIC (S. aureus VRSA): 6.25 µM (≈ 10.3 µg/mL); MIC-fold improvement vs. vancomycin (S. aureus VRSA): 16; MIC [5]: 0.39 µM (≈ 0.644 µg/mL); MIC-fold improvement vs. vancomycin [5]: 2; MIC (E. faecalis VSE 1): 0.39 µM (≈ 0.644 µg/mL); MIC-fold improvement vs. vancomycin (E. faecalis VSE 1): 4; MIC (E. faecalis VRE 29): 12.5 µM (≈ 20.6 µg/mL); MIC-fold improvement vs. vancomycin (E. faecalis VRE 29): 32
